Assay results taken from US20230107642A1 (Erasca, Inc., priority 2020, published 2023).

Experiment: Determination of total drug concentration in rat brain (BBB penetration)
Assay type: in vivo
Settings: male SD rat, 2 mg/kg IV infusion for 4 hours, brain collected at end of 4 hours
Experimental: BB. Example 9: Determination of Total Drug Concentration in Rat Brain
In Vivo Experimental Procedures
Infuse male SD rat at 2 mg/kg dose for 4 hours through IV administration route. Collect brain tissues at the end of 4 hours.
Sample Preparation Procedures
Dilute brain tissue by adding homogenization solvent (1:4, w/v). Homogenize diluted brain tissue samples. Extract analyte by adding organic solvent (1:4, v/v) with spiked internal standard. Vortex and centrifuge the samples. Remove supernatant and dilute with HPLC compatible solvent (1:3, v/v).
Inject diluted extract into LC-MS/MS system using reversed phase high performance liquid chromatography coupled with electrospray ionization and selected reaction monitoring. Determine the total drug concentration in brain samples by quantitating against the standard curve prepared using the same matrix.
The following data provides blood brain barrier (BBB) penetration activity for a selection of inventive compounds where were directly compared to sotorasib and adagrasib (concentration in brain measured in ng/g).
Compounds that were measured as having a total concentration in the brain of at least 60 ng/g are indicated as “+”.

Q: For `C=CC(=O)N1[C@H](C)CN(c2nc(=O)n3c4c(c(-c5cc(Cl)c(F)cc5F)c(C(F)(F)F)cc24)SC[C@@H](OCC)C3)C[C@@H]1C` (atropisomer, axis not shown) [Example 13-77], which BBB activity is on record?
A: − (Compounds that did not meet this threshold are indicated as “−”)

Q: With `C=CC(=O)N1CCN(c2nc(=O)n3c4c(c(-c5cc(Cl)c(F)cc5F)c(C(F)(F)F)cc24)SC[C@@H]3COC)CC1` [Example 13-5] as the compound, how does the BBB activity read?
A: + (Compounds that were measured as having a total concentration in the brain of at least 60 ng/g are indicated as “+”)

Q: With `C=C(F)C(=O)N1[C@H](C)CN(c2nc(=O)n3c4c(c(-c5ccc(F)cc5)c(C(F)(F)F)cc24)SC[C@@H](OC)C3)C[C@@H]1C` [Example 13-9] as the compound, how does the BBB activity read?
A: + (Compounds that were measured as having a total concentration in the brain of at least 60 ng/g are indicated as “+”)

Q: For `C=CC(=O)N1[C@H](C)CN(c2nc(=O)n3c4c(c(-c5ccc(F)cc5)c(C(F)(F)F)cc24)SC[C@@H]3COC)C[C@@H]1C` [Example 13-10], which BBB activity is on record?
A: + (Compounds that were measured as having a total concentration in the brain of at least 60 ng/g are indicated as “+”)

Q: For `C=CC(=O)N1[C@H](C)CN(c2nc(=O)n3c4c(c(-c5ccc(F)cc5F)c(C(F)(F)F)cc24)SC[C@@H]3COC)C[C@@H]1C` [Example 13-13], which BBB activity is on record?
A: + (Compounds that were measured as having a total concentration in the brain of at least 60 ng/g are indicated as “+”)

Q: With `C=CC(=O)N1CCN(c2nc(=O)n3c4c(c(-c5ccc(F)cc5F)c(C(F)(F)F)cc24)SC[C@@H]3COC)CC1` [Example 13-14] as the compound, how does the BBB activity read?
A: + (Compounds that were measured as having a total concentration in the brain of at least 60 ng/g are indicated as “+”)

Q: With `C=CC(=O)N1CCN(c2nc(=O)n3c4c(c(-c5c(C)cc(F)cc5F)c(C(F)(F)F)cc24)SC[C@@H]3COC)CC1` [Example 13-16] as the compound, how does the BBB activity read?
A: + (Compounds that were measured as having a total concentration in the brain of at least 60 ng/g are indicated as “+”)

Q: With `C=CC(=O)N1C[C@H](C)N(c2nc(=O)n3c4c(c(-c5ccc(F)cc5F)c(Cl)cc24)SCC3)C[C@H]1C` [Example 13-18] as the compound, how does the BBB activity read?
A: + (Compounds that were measured as having a total concentration in the brain of at least 60 ng/g are indicated as “+”)

Q: With `C=CC(=O)N1[C@H](C)CN(c2nc(=O)n3c4c(c(-c5cc(I)c(F)cc5F)c(C(F)(F)F)cc24)SC[C@@H]3COC)C[C@@H]1C` [Example 13-19] as the compound, how does the BBB activity read?
A: + (Compounds that were measured as having a total concentration in the brain of at least 60 ng/g are indicated as “+”)

Q: For `C=CC(=O)N1[C@H](C)CN(c2nc(=O)n3c4c(c(-c5ccccc5)c(C(F)(F)F)cc24)SC[C@@H]3COC)C[C@@H]1C` [Example 13-20], which BBB activity is on record?
A: + (Compounds that were measured as having a total concentration in the brain of at least 60 ng/g are indicated as “+”)

Q: For `C=CC(=O)N1CCN(c2nc(=O)n3c4c(c(-c5ccc(F)cc5F)c(C(F)(F)F)cc24)SCC3)[C@@H](C)C1` [Example 13-21], which BBB activity is on record?
A: + (Compounds that were measured as having a total concentration in the brain of at least 60 ng/g are indicated as “+”)

Q: For `C=CC(=O)N1[C@H](C)CN(c2nc(=O)n3c4c(c(-c5ccc(F)cc5)c(C(F)(F)F)cc24)SC[C@@H]3CN2CCN(C3CC3)CC2)C[C@@H]1C` [Example 13-22], which BBB activity is on record?
A: + (Compounds that were measured as having a total concentration in the brain of at least 60 ng/g are indicated as “+”)

Q: Which BBB activity does the source give for `C=CC(=O)N1C[C@H](C)N(c2nc(=O)n3c4c(c(-c5cc(Br)c(F)cc5F)c(C(F)(F)F)cc24)SCC2(COC2)C3)C[C@H]1C` [Example 13-23] here?
A: + (Compounds that were measured as having a total concentration in the brain of at least 60 ng/g are indicated as “+”)

Q: For `C=CC(=O)N1[C@H](C)CN(c2nc(=O)n3c4c(c(-c5cc(Cl)c(F)cc5F)c(C(F)(F)F)cc24)SC[C@@H](OC)C3)C[C@@H]1C` [Example 13-24], which BBB activity is on record?
A: + (Compounds that were measured as having a total concentration in the brain of at least 60 ng/g are indicated as “+”)

Q: For `C=CC(=O)N1CCN(c2nc(=O)n3c4c(c(-c5ccc(F)c(Cl)c5)c(C(F)(F)F)cc24)SC[C@@H](OC)C3)CC1` [Example 13-25], which BBB activity is on record?
A: + (Compounds that were measured as having a total concentration in the brain of at least 60 ng/g are indicated as “+”)

Q: With `C=CC(=O)N1[C@H](C)CN(c2nc(=O)n3c4c(c(-c5ccc(F)cc5F)c(C(F)(F)F)cc24)SC[C@@H]3CN2CCN(C3CC3)CC2)C[C@@H]1C` [Example 13-26] as the compound, how does the BBB activity read?
A: + (Compounds that were measured as having a total concentration in the brain of at least 60 ng/g are indicated as “+”)

Q: With `C=CC(=O)N1CCN(c2nc(=O)n3c4c(c(-c5cc(Cl)c(F)cc5F)c(Cl)cc24)SC[C@@H]3CN2CCN(C3CC3)CC2)[C@@H](C)C1` [Example 13-27] as the compound, how does the BBB activity read?
A: + (Compounds that were measured as having a total concentration in the brain of at least 60 ng/g are indicated as “+”)

Q: For `C=CC(=O)N1[C@H](C)CN(c2nc(=O)n3c4c(c(-c5cc(Cl)c(F)cc5F)c(C(F)(F)F)cc24)SC[C@@H]3CN2CCN(C3CC3)CC2)C[C@@H]1C` [Example 13-28], which BBB activity is on record?
A: + (Compounds that were measured as having a total concentration in the brain of at least 60 ng/g are indicated as “+”)

Q: Which BBB activity does the source give for `C=CC(=O)N1C[C@H](C)N(c2nc(=O)n3c4c(c(-c5ccc(F)cc5F)c(C(F)(F)F)cc24)SC[C@@H]3CN2CCN(C3CC3)CC2)C[C@H]1C` [Example 13-29] here?
A: + (Compounds that were measured as having a total concentration in the brain of at least 60 ng/g are indicated as “+”)

Q: For `C=CC(=O)N1CCN(c2nc(=O)n3c4c(c(-c5cc(Cl)c(F)cc5F)c(C(F)(F)F)cc24)SC[C@@H]3CN2CCN(C3CC3)CC2)CC1` [Example 13-30], which BBB activity is on record?
A: + (Compounds that were measured as having a total concentration in the brain of at least 60 ng/g are indicated as “+”)

Q: With `C=CC(=O)N1C[C@H](C)N(c2nc(=O)n3c4c(c(-c5cc(Cl)c(F)cc5F)c(C(F)(F)F)cc24)SCC2(COC2)C3)C[C@H]1C` [Example 13-31] as the compound, how does the BBB activity read?
A: + (Compounds that were measured as having a total concentration in the brain of at least 60 ng/g are indicated as “+”)

Q: Which BBB activity does the source give for `C=CC(=O)N1CC2C(=O)N(C)c3cnc4c(F)c(-c5c(O)cccc5F)c(Cl)cc4c3N2C[C@H]1C` (stereo partly shown) [Example 13-32] here?
A: + (Compounds that were measured as having a total concentration in the brain of at least 60 ng/g are indicated as “+”)

Q: Which BBB activity does the source give for `C=CC(=O)N1CCN(c2nc(=O)n3c4c(c(-c5ccc(F)cc5)c(C(F)(F)F)cc24)SC[C@@H]3CN2CCN(C3CC3)CC2)CC1` [Example 13-33] here?
A: + (Compounds that were measured as having a total concentration in the brain of at least 60 ng/g are indicated as “+”)

Q: With `C=CC(=O)N1C[C@H](C)N(c2nc(=O)n3c4c(c(-c5cc(Cl)c(F)cc5F)c(C(F)(F)F)cc24)SCC2(CCOCC2)C3)C[C@H]1C` [Example 13-34] as the compound, how does the BBB activity read?
A: + (Compounds that were measured as having a total concentration in the brain of at least 60 ng/g are indicated as “+”)

Q: Which BBB activity does the source give for `C=CC(=O)N1CCN(c2nc(=O)n3c4c(c(-c5ccc(F)cc5F)c(C(F)(F)F)cc24)SC[C@@H]3COC)[C@@H](C)C1` [Example 13-35] here?
A: + (Compounds that were measured as having a total concentration in the brain of at least 60 ng/g are indicated as “+”)

Q: With `C=CC(=O)N1[C@H](C)CN(c2nc(=O)n3c4c(c(-c5cc(Br)c(F)cc5F)c(C(F)(F)F)cc24)SCC2(COC2)C3)C[C@@H]1C` [Example 13-36] as the compound, how does the BBB activity read?
A: + (Compounds that were measured as having a total concentration in the brain of at least 60 ng/g are indicated as “+”)

Q: For `C=CC(=O)N1CCN(c2nc(=O)n3c4c(c(-c5ccc(F)cc5F)c(C(F)(F)F)cc24)SC[C@H](OC)C3)CC1` [Example 13-37], which BBB activity is on record?
A: + (Compounds that were measured as having a total concentration in the brain of at least 60 ng/g are indicated as “+”)

Q: For `C=CC(=O)N1C[C@H](C)N(c2nc(=O)n3c4c(c(-c5ccc(F)cc5F)c(Cl)cc24)OCC3CN(C)C)C[C@H]1C` (stereo partly shown) [Example 13-38], which BBB activity is on record?
A: + (Compounds that were measured as having a total concentration in the brain of at least 60 ng/g are indicated as “+”)

Q: Which BBB activity does the source give for `C=CC(=O)N1[C@H](C)CN(c2nc(=O)n3c4c(c(-c5ccc(F)cc5)c(C(F)(F)F)cc24)SC[C@@H](OC)C3)C[C@@H]1C` [Example 13-40] here?
A: + (Compounds that were measured as having a total concentration in the brain of at least 60 ng/g are indicated as “+”)

Q: Which BBB activity does the source give for `C=CC(=O)N1[C@H](C)CN(c2nc(=O)n3c4c(c(-c5ccc(F)cc5)c(C(F)(F)F)cc24)SC[C@H](OCC)C3)C[C@@H]1C` [Example 13-41] here?
A: + (Compounds that were measured as having a total concentration in the brain of at least 60 ng/g are indicated as “+”)

Q: Which BBB activity does the source give for `C=CC(=O)N1[C@H](C)CN(c2nc(=O)n3c4c(c(-c5cc(Br)c(F)cc5F)c(C(F)(F)F)cc24)SC[C@@H](Oc2cnccn2)C3)C[C@@H]1C` [Example 13-42] here?
A: + (Compounds that were measured as having a total concentration in the brain of at least 60 ng/g are indicated as “+”)

Q: With `C=CC(=O)N1CCN(c2nc(=O)n3c4c(c(-c5ccc(F)cc5F)c(Cl)cc24)SCC3)[C@@H](C)C1` [Example 13-43] as the compound, how does the BBB activity read?
A: + (Compounds that were measured as having a total concentration in the brain of at least 60 ng/g are indicated as “+”)

Q: For `C=CC(=O)N1[C@H](C)CN(c2nc(=O)n3c4c(c(-c5cc(Cl)c(F)cc5F)c(C(F)(F)F)cc24)SC[C@@H]3CN2C[C@@H]3C[C@H]2CO3)C[C@@H]1C` [Example 13-46], which BBB activity is on record?
A: + (Compounds that were measured as having a total concentration in the brain of at least 60 ng/g are indicated as “+”)

Q: With `C=CC(=O)N1[C@H](C)CN(c2nc(=O)n3c4c(c(-c5ccc(F)cc5)c(C(F)(F)F)cc24)SC[C@H](c2ccccc2)C3)C[C@@H]1C` [Example 13-47] as the compound, how does the BBB activity read?
A: − (Compounds that did not meet this threshold are indicated as “−”)
